In patent publication US11180474B2 (BRISTOL-MYERS SQUIBB COMPANY, priority 2016, dated 2021):

How the values were obtained:
human TLR9 = molecular target: T1, human TLR9 (Homo sapiens, UniProt Q9NR96); experiment: TLR9 inhibition reporter assay (HEK-Blue cells, SEAP reporter, ODN2006 stimulation); format: cell-based; conditions: HEK-Blue cells overexpressing human TLR9, ODN2006 5 nM
T1 construct: host or cells: HEK-Blue cells
T1 sequence (Q9NR96 26-1032): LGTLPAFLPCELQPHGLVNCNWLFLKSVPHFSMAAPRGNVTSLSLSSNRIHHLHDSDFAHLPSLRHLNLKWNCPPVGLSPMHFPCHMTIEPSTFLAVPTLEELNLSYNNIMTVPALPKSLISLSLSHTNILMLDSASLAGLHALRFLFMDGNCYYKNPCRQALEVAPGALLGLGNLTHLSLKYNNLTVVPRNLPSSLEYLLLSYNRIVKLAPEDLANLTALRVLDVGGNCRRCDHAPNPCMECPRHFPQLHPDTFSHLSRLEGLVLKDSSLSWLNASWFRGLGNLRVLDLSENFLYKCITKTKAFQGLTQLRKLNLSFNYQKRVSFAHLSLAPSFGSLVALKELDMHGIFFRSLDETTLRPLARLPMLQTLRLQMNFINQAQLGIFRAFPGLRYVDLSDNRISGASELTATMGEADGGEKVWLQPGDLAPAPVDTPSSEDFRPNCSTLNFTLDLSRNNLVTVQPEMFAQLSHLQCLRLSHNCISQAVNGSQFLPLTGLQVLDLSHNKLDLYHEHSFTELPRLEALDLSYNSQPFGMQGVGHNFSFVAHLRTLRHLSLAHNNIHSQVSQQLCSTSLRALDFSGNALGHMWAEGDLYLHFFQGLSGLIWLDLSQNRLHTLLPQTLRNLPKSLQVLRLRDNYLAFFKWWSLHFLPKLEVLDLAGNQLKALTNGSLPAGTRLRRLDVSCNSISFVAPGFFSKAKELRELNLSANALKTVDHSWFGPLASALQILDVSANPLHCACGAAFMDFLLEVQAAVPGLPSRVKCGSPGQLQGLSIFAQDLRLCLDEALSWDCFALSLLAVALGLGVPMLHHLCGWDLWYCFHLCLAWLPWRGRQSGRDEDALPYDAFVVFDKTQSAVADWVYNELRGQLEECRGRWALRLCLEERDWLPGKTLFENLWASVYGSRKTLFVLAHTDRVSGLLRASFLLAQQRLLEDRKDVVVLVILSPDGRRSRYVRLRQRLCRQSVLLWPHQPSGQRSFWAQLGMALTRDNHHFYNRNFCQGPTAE
Method in brief: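 Agonists used: gardiquimod 7.5 μM (TLR7), R848 15.9 μM (TLR8), ODN2006 5 nM (TLR9), added after 30 min room-temperature compound pre-treatment (0.05 nM–50 μM) of receptor-overexpressing HEK-Blue cells. SEAP reporter (NF-κB/AP-1 driven) read after 22 h at 37 °C; inhibition scaled between agonist+DMSO and reference-inhibitor wells.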

human TLR8 = molecular target: T2, human TLR8 (Homo sapiens, UniProt Q9NR97); experiment: TLR8 inhibition reporter assay (HEK-Blue cells, SEAP reporter, R848 stimulation); format: cell-based; conditions: HEK-Blue cells overexpressing human TLR8, R848 15.9 μM
T2 construct: host or cells: HEK-Blue cells
T2 sequence (Q9NR97 27-1041): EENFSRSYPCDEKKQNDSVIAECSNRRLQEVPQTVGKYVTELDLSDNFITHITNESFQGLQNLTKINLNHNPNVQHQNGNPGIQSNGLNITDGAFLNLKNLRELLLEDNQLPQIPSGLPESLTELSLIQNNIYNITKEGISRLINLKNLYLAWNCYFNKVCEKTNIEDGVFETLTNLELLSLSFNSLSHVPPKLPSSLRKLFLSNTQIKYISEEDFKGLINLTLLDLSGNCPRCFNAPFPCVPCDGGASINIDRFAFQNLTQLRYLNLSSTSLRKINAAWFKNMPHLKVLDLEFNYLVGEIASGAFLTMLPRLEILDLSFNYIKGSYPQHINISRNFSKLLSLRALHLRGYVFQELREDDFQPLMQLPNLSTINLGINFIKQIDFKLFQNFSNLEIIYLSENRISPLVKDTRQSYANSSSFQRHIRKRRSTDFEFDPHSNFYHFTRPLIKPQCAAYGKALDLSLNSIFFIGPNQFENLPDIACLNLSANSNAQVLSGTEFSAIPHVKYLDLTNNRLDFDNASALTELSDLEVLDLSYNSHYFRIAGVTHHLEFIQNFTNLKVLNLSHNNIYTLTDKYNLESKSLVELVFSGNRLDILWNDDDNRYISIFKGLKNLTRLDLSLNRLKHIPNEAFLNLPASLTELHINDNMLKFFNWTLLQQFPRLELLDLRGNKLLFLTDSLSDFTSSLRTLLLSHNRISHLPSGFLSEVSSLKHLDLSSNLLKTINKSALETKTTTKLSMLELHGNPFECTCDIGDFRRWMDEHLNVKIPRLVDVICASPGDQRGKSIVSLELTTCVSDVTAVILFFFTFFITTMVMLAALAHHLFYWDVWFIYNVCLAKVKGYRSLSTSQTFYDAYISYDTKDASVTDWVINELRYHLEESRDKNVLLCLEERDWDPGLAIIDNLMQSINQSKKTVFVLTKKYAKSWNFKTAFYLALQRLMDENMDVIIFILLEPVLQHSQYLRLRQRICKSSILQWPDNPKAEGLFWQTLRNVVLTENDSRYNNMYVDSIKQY
Method in brief: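 HEK-Blue reporter cells (15,000/well TLR7, 20,000 TLR8) exposed to compound over 0.05 nM–50 μM, agonist-stimulated (R848 for TLR8, gardiquimod for TLR7), 22 h at 37 °C, 5% CO2. SEAP read with HEK-Blue Detection; % inhibition relative to agonist-plus-DMSO and known-inhibitor controls.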

IC50 (human TLR9)	IC50 (human TLR8)	Structure (SMILES)
2750 nM	61 nM	COc1ccc(-c2[nH]c3ccc(C4CCN(C(=O)CN5CCC[C@@H](C(=O)N(C)C(C)C)C5)CC4)cc3c2C(C)C)cc1OC [Example 304, (R)-1-(2-(4-(2-(3,4-dimethoxyphenyl)-3-isopropyl-1H-indol-5-yl)piperidin-1-yl)-2-oxoethyl)-N-isopropyl-N-methylpiperidine-3-carboxamide]
561 nM	26 nM	COc1ccc(-c2[nH]c3ccc(C4CCN(C(=O)CN5CCC[C@@H](C(=O)N6CCC(N(C)C)CC6)C5)CC4)cc3c2C(C)C)cc1OC [Example 305, (R)-1-(4-(2-(3,4-dimethoxyphenyl)-3-isopropyl-1H-indol-5-yl)piperidin-1-yl)-2-(3-(4-(dimethylamino)piperidine-1-carbonyl)piperidin-1-yl)ethan-1-one]
2680 nM	73 nM	COc1ccc(-c2[nH]c3ccc(C4CCN(C(=O)CN5CCC[C@@H](C(=O)N6CCC(CCO)CC6)C5)CC4)cc3c2C(C)C)cc1OC [Example 306, (R)-1-(4-(2-(3,4-dimethoxyphenyl)-3-isopropyl-1H-indol-5-yl)piperidin-1-yl)-2-(3-(4-(2-hydroxyethyl)piperidine-1-carbonyl)piperidin-1-yl)ethan-1-one]
579 nM	38 nM	COc1ccc(-c2[nH]c3ccc(C4CCN(C(=O)CN5CCC[C@@H](C(=O)N6CCN(CCN7CCCC7)CC6)C5)CC4)cc3c2C(C)C)cc1OC [Example 307, (R)-1-(4-(2-(3,4-dimethoxyphenyl)-3-isopropyl-1H-indol-5-yl)piperidin-1-yl)-2-(3-(4-(2-(pyrrolidin-1-yl)ethyl)piperazine-1-carbonyl)piperidin-1-yl)ethan-1-one]
2610 nM	41 nM	COc1ccc(-c2[nH]c3ccc(C4CCN(C(=O)CN5CCC[C@@H](C(=O)NCC#N)C5)CC4)cc3c2C(C)C)cc1OC [Example 308, (R)—N-(cyanomethyl)-1-(2-(4-(2-(3,4-dimethoxyphenyl)-3-isopropyl-1H-indol-5-yl)piperidin-1-yl)-2-oxoethyl)piperidine-3-carboxamide]
6920 nM	59 nM	COc1ccc(-c2[nH]c3ccc(C4CCN(C(=O)CN5CCC[C@@H](C(=O)NCC(N)=O)C5)CC4)cc3c2C(C)C)cc1OC [Example 309, (R)—N-(2-amino-2-oxoethyl)-1-(2-(4-(2-(3,4-dimethoxyphenyl)-3-isopropyl-1H-indol-5-yl)piperidin-1-yl)-2-oxoethyl)piperidine-3-carboxamide]
5230 nM	488 nM	COc1ccc(-c2[nH]c3ccc(C4CCN(C(=O)CN5CCC[C@@H](C(=O)N6CC7CNCC7C6)C5)CC4)cc3c2C(C)C)cc1OC (stereo partly drawn) [Example 310, 1-(4-(2-(3,4-dimethoxyphenyl)-3-isopropyl-1H-indol-5-yl)piperidin-1-yl)-2-((3R)-3-(octahydropyrrolo[3,4-c]pyrrole-2-carbonyl)piperidin-1-yl) ethan-1-one]
2480 nM	60 nM	COc1ccc(-c2[nH]c3ccc(C4CCN(C(=O)CN5CCC[C@@H](C(=O)N6C(C)CCC6C)C5)CC4)cc3c2C(C)C)cc1OC (stereo partly drawn) [Example 311, 1-(4-(2-(3,4-dimethoxyphenyl)-3-isopropyl-1H-indol-5-yl)piperidin-1-yl)-2-((3R)-3-(2,5-dimethylpyrrolidine-1-carbonyl)piperidin-1-yl)ethan-1-one]
1370 nM	28 nM	COc1ccc(-c2[nH]c3ccc(C4CCN(CC(=O)N(C)C)CC4)cc3c2C(C)C)cc1OC [Example 312, 2-(4-(2-(3,4-dimethoxyphenyl)-3-isopropyl-11H-indol-5-yl)piperidin-1-yl)-N,N-dimethylacetamide]
48300 nM	496 nM	COc1ccc(-c2[nH]c3ccc(C4CCN(C(=O)CO)CC4)cc3c2C(C)C)cc1OC [Example 313, 1-(4-(2-(3,4-dimethoxyphenyl)-3-isopropyl-1H-indol-5-yl)piperidin-1-yl)-2-hydroxyethanone]
26600 nM	657 nM	COc1ccc(-c2[nH]c3ccc(C4CCN(C(=O)COC(C)C)CC4)cc3c2C(C)C)cc1OC [Example 314, 1-(4-(2-(3,4-dimethoxyphenyl)-3-isopropyl-1H-indol-5-yl)piperidin-1-yl)-2-isopropoxyethan-1-one]
